Reference: patent publication US4039540A, “3-Substituted quinoxaline-2-carboxamide-1,4-dioxides” (Pfizer Inc., priority 1975, dated 1977)
Values after ≈ are worked out from the molar mass of the structure shown. Where two headings read alike, the source gives them in different places.

Key:
E. coli [1] = assay: in vivo activity in mice infected with a lethal inoculum of E. coli; conditions: Escherichia coli, sc, subcutaneous, multiple dosing, read-out: IN VIVO E. coli, number of survivors among the treated animals
Protocol: (§1) In determining the in vivo activity of the quinoxaline-1,4-dioxides of this invention, the test compound is administered to mice which have been infected by […] injection of a lethal inoculum of pathogenic bacteria. The test compound is administered using a multiple dosing regimen and using either the oral (PO) or the subcutaneous (SC) route. The inoculum of bacteria varies from about 1 to about 10 times the amount needed to kill 100% of the mice under the conditions of the test. At the end of the test, the activity of the compound is assessed by counting the number of survivors among the treated animals.
(§2) In vitro and in vivo activity of representative compounds of this invention, determined as aforesaid, are reported in the following tabulation for compounds of the formula: [drawing 12]

E. coli [2] = assay: in vitro antibacterial activity, two-fold serial dilution in Brain-Heart Infusion Broth (MIC); type: cell-based; conditions: Escherichia coli, overnight, anaerobic
Protocol: (§3) The broth is inoculated with bacteria and with the test quinoxaline-1,4-dioxide and then it is incubated overnight under anerobic conditions. On the next day, the test is read visually. The minimum inhibitory concentration (MIC) of test compound is the lowest concentration which prevents turbidity, i.e., which prevents growth of the microorganism.
as §2

Strep. pyrogens = assay: as above; type: cell-based; conditions: overnight, anaerobic
Protocol: as §3, §2

Strep. pyogenes = assay: in vivo activity in mice infected with a lethal inoculum of Strep. pyogenes; conditions: Streptococcus pyogenes, multiple dosing
Protocol: as §1, §2

[3] = sc, subcutaneous, read-out: IN VIVO Strep. pyogenes, number of survivors among the treated animals
[4] = oral, read-out: IN VIVO Strep. pyogenes, number of survivors among the treated animals, PO (data in parenthesis)

| SMILES | responders at 25 mg/kg (E. coli [1]) [%] | MIC (E. coli [2]) [µg/mL] | MIC (Strep. pyrogens) [µg/mL] | responders at 50 mg/kg (Strep. pyogenes; [3]) [%] | responders at 50 mg/kg (Strep. pyogenes; [4]) [%] |
| --- | --- | --- | --- | --- | --- |
| NC(=O)c1c(CS(=O)(=O)CCCN2CCCC2)[n+]([O-])c2ccccc2[n+]1[O-] [NH2; drawing 14; H] | 50 | 12.5 (≈ 31.7 µM) | 6.25 (≈ 15.8 µM) | – | – |
| CNC(=O)c1c(CS(=O)(=O)CCCN(C)C)[n+]([O-])c2ccccc2[n+]1[O-] [NHCH3; SO2 (CH2)3 N(CH3)2; H] | 100 | 6.25 (≈ 16.3 µM) | 3.12 (≈ 8.17 µM) | 100 | – |
| CCN(CC)CCCS(=O)(=O)Cc1c(C(=O)N(C)C)[n+]([O-])c2ccccc2[n+]1[O-] [N(CH3)2; SO2 (CH2)3 N(CH2 CH3)2; H] | 0 | 25 (≈ 58.9 µM) | 6.25 (≈ 14.7 µM) | 60 | 10 |
| CCCNC(=O)c1c(CSCCO)[n+]([O-])c2ccccc2[n+]1[O-] [NHPr; SCH2 CH2 OH; H] | 20 | 25 (≈ 74.1 µM) | 6.25 (≈ 18.5 µM) | 50 | 30 |
| COCCNC(=O)c1c(CS(=O)(=O)CCCN2CCCCC2)[n+]([O-])c2ccccc2[n+]1[O-] [NHCH2 CH2 OCH3; drawing 25; H] | 20 | 50 (≈ 107 µM) | 1.56 (≈ 3.35 µM) | 100 | 100 |
| CN(C)C(=O)c1c(CS(=O)(=O)CCCN2CCCC2)[n+]([O-])c2ccccc2[n+]1[O-] [N(CH3)2; drawing 15; H] | 80 | 6.25 (≈ 14.8 µM) | 3.12 (≈ 7.4 µM) | – | – |
| O=C(NCCCCc1ccccc1)c1c(CS(=O)(=O)CCO)[n+]([O-])c2ccccc2[n+]1[O-] [NH(CH2)4 .phi.; SO2 CH2 CH2 OH; H] | 20 | > 200 | 3.12 (≈ 6.8 µM) | 10 | 10 |
| CCN(CC)CCCS(=O)(=O)Cc1c(C(=O)NC)[n+]([O-])c2ccccc2[n+]1[O-] [NHCH3; SO2 (CH2)3 N(CH2 CH3)2; H] | 40 | 25 (≈ 60.9 µM) | 12.5 (≈ 30.5 µM) | 80 | 0 |
| CNC(=O)c1c(CS(=O)(=O)CCOC(C)=O)[n+]([O-])c2ccccc2[n+]1[O-] [NHCH3; SO2 CH2 CH2 OAc; H] | 80 | 3.12 (≈ 8.15 µM) | < 0.391 | 90 | 70 |
| COCCNC(=O)c1c(CS(=O)(=O)CCCN(C)C)[n+]([O-])c2ccccc2[n+]1[O-] [NHCH2 CH2 OCH3; SO2 (CH2)3 N(CH3)2; H] | 10 | 50 (≈ 117 µM) | 1.56 (≈ 3.66 µM) | 100 | 50 |
| CNC(=O)c1c(CS(=O)(=O)CCCN2CCOCC2)[n+]([O-])c2ccccc2[n+]1[O-] [NHCH3; drawing 18; H] | 0 | 25 (≈ 58.9 µM) | 25 (≈ 58.9 µM) | 100 | 70 |
| CCCCNC(=O)c1c(CS(=O)(=O)CCO)[n+]([O-])c2ccccc2[n+]1[O-] [NHBu; SO2 CH2 CH2 OH; H] | 40 | 25 (≈ 65.2 µM) | 1.56 (≈ 4.07 µM) | 0 | 40 |
| CC(O)CNC(=O)c1c(CS(=O)(=O)CCO)[n+]([O-])c2ccccc2[n+]1[O-] (centres unmarked) [NHCH2 CHOHCH3; SO2 CH2 CH2 OH; H] | 20 | 100 (≈ 259 µM) | 12.5 (≈ 32.4 µM) | 0 | 10 |
| CCCCNC(=O)c1c(CSCCO)[n+]([O-])c2ccccc2[n+]1[O-] [NHBu; SCH2 CH2 OH; H] | 0 | 50 (≈ 142 µM) | 50 (≈ 142 µM) | 20 | 10 |
| CN(C)CCCS(=O)(=O)Cc1c(C(=O)N(C)C)[n+]([O-])c2ccccc2[n+]1[O-] [N(CH3)2; SO2 (CH2)3 N(CH3)2; H] | 100 | 3.12 (≈ 7.88 µM) | 3.12 (≈ 7.88 µM) | 100 | 60 |
| O=C(NCc1ccccc1)c1c(CS(=O)(=O)CCO)[n+]([O-])c2ccccc2[n+]1[O-] [NHCH2 .phi.; SO2 CH2 CH2 OH; H] | 20 | 200 (≈ 479 µM) | 0.781 (≈ 1.87 µM) | 20 | 20 |
| CN(C)CCCS(=O)(=O)Cc1c(C(N)=O)[n+]([O-])c2ccccc2[n+]1[O-] [NH2; SO2 (CH2)3 N(CH3)2; H] | 50 | 25 (≈ 67.9 µM) | 1.56 (≈ 4.24 µM) | 100 | 20 |
